# Data from publication PMC7115581 (European Journal of Medicinal Chemistry, 2016).
# Tests used:
# [1] = test system: human embryonic lung (HEL) cells; conditions: Table 2, concentration that causes a microscopically detectable alteration of morphology
# [2] = test system: human embryonic lung (HEL) cells; assay: Cytotoxicity, inhibition of HEL cell growth; format: cell-based; conditions: for cytotoxic activity (in words): at 100 μM
# [3] = Cytotoxicity, inhibition of HEL cell growth; format: cell-based, human; conditions: human, human embryonic lung (HEL) cells, CC50, cytotoxic concentration required to reduce HEL cell growth by 50%; 3 days
# [4] = test system: varicella-zoster virus (VZV) TK+ OKA strain; assay: microbe, parasite or virus in culture; format: cell-based; conditions: Human alphaherpesvirus 3, HEL, read-out: EC50 TK+ OKA
# [5] = test system: human cytomegalovirus (HCMV) Davis strain; assay: microbe, parasite or virus in culture; format: cell-based; conditions: Human betaherpesvirus 5, HEL, read-out: Antiviral activity EC50 HMCV Davis
# [6] = test system: varicella zoster virus (VZV); conditions: for antiviral activity (in words): at 100 μM; for anti-VZV activity (in words): HEL cells
# [7] = test system: varicella zoster virus (VZV); assay: microbe, parasite or virus in culture; conditions: Human alphaherpesvirus 3, HEL, read-out: EC50 against VZV
# [8] = test system: broad variety of RNA viruses, including HIV-1 and HIV-2, feline coronavirus, vesicular stomatitis virus, Coxsackie virus B4, respiratory syncytial virus …; format: cell-based
# [9] = test system: varicella zoster virus (VZV); assay: in vitro; conditions: human
# HCMV, HSV-1, HSV-2 = format: cell-based; conditions: HCMV AD-169 and Davis, HSV-1 KOS and TK- KOS ACVr, HSV-2 G; HEL cell cultures
Compound,Cytotoxicity MMC [1],anti-VZV activity (in words) [6],also measured
"Nc1nc2c(ncn2COCCO)c(=O)[nH]1 [Acyclovir, acyclovir, reference compound]",>250 µM,–,"CC50 ([2]; cytotoxic concentration required to reduce HEL cell growth by 50%, 3 days): 191000 nM; CC50 at 3 days [3]: 224000 nM"
"O=c1[nH]c(=O)n([C@H]2C[C@H](O)[C@@H](CO)O2)cc1/C=C/Br [Brivudin, brivudin, reference compound]",>250 µM,–,EC50 [4]: 20 to 30 nM
"Nc1ccn(C[C@@H](CO)OCP(=O)(O)O)c(=O)n1.O.O [Cidofovir, reference compound]",>250 µM,–,EC50 [5]: 510 nM
CCCn1cc(C(=O)c2ccc(Cl)cc2)c2ccccc21 [Compound 4a],>100 µM,–,antiviral activity (in words) [6]: do not displayed antiviral or cytotoxic activities; cytotoxic activity (in words) [2]: do not displayed antiviral or cytotoxic activities
CCCn1cc(CN2CCCCC2)c2ccccc21 [Compound 4b],>100 µM,–,antiviral activity (in words) [6]: do not displayed antiviral or cytotoxic activities; cytotoxic activity (in words) [2]: do not displayed antiviral or cytotoxic activities
CCCn1cc(CNCCc2ccc(-c3ccccc3)cc2)c2ccccc21 [Compound 4c],4 µM,–,–
c1ccc(-c2ccc(Cn3cc(CN4CCCCC4)c4ccccc43)cc2)cc1 [Compound 4d],20 µM,–,–
CCCn1cc(CN2CCCCC2)c2cc(CNc3ccc(Cl)cc3)ccc21 [Compound 8a],20 µM,–,–
CCCn1cc(CNCCc2ccc(-c3ccccc3)cc2)c2cc(CNc3ccc(Cl)cc3)ccc21 [Compound 8b],20 µM,–,–
CCCn1cc(CN2CCCCC2)c2cc(NC(=O)c3ccccc3)ccc21 [Compound 8c],100 µM,–,–
COC(=O)c1ccc(CNCCc2cn(Cc3ccc(-c4ccccc4)cc3)c3ccccc23)cc1 [Compound 15],20 µM,–,–
Cn1cc(CCNCCc2ccc(-c3ccccc3)cc2)c2ccccc21 [Compound 16a],>4 µM,–,–
CC(=O)N(CCc1ccc(-c2ccccc2)cc1)CCc1cn(C)c2ccccc12 [Compound 17a],20 µM,–,"EC50 [7]: 1700 to 3600 nM; inhibitory activity against RNA viruses (in words) [8]: totally inactive; selectivity ratio [9]: 10 to 20; activity against other Herpesviridae (in words) (HCMV, HSV-1, HSV-2): totally inactive"
CC(=O)N(CCc1cn(C)c2ccccc12)c1ccc2ccccc2c1 [Compound 17d],–,complete loss of the antiviral activity,–
CC(=O)N(CCc1cn(C)c2ccccc12)c1cccc2ccccc12 [Compound 17e],–,complete loss of the antiviral activity,–
CC(=O)N(CCc1cn(C)c2ccccc12)Cc1ccc2ccccc2c1 [Compound 17f],–,complete loss of the antiviral activity,–
CC(=O)N(CCc1cn(C)c2ccccc12)Cc1cccc2ccccc12 [Compound 17g],–,complete loss of the antiviral activity,–
CC(=O)N(CCc1cn(C)c2ccccc12)Cc1ccc(-c2ccccc2)cc1 [Compound 17h],–,complete loss of the antiviral activity,–
CC(=O)N(CCc1cn(C)c2ccccc12)Cc1ccc(Oc2ccccc2)cc1 [Compound 17i],–,complete loss of the antiviral activity,–
Cn1cc(CCN(CCc2ccc(-c3ccccc3)cc2)C(=O)C2CCCCC2)c2ccccc21 [Compound 18a],–,annihilation of antiviral activity,–
Cn1cc(CCN(CCc2ccc(-c3ccccc3)cc2)C(=O)CCN2CCOCC2)c2ccccc21 [Compound 18c],–,annihilation of antiviral activity,–
Cn1cc(CCN(CCc2ccc(-c3ccccc3)cc2)C(=O)OC(C)(C)C)c2ccccc21 [Compound 18d],–,annihilation of antiviral activity,–
